Experimental data taken from patent US20240368149A1, “ANALOGS OF XANOMELINE” (Terran Biosciences Inc., priority 2023, published 2024).
Where two headings read alike, the source gives them in different places.

What was measured:
[1] = Rat PK: plasma prodrug concentration after intramuscular (IM) dosing of xanomeline prodrugs at 5 mg/kg (Example A-4); assay type: in vivo, male Sprague-Dawley (SD) rats; conditions: male, Sprague-Dawley, IM 5 mg/kg of xanomeline, Mean
Method: (§1) • Step 1: A stock solution of the compound(s) were prepared to 1 mg/ml in DMSO • Step 2: A 10,000 ng/mL matched matrix standard was prepared using the stock solution(s) • Step 3: Calibration standards in matched matrix were prepared between 10,000 ng/ml and 0.5 ng/mL using serial dilution • Step 4: QC samples were prepared in matched matrix at 4000, 800, 400, 40 and 10 ng/mL
(§2) • Step 1: Add 10 μL of the standards, QCs and samples to a 96-well plate (extraction plate) • Step 2: To each standard, QC and test sample, add 100 μL of ISZ • Step 3: Sonicate for 2 min then mix the plate for approximately 2 min at 1200 rpm on a plate shaker • Step 4: Centrifuge the plate at 3000 rpm for 5 min • Step 5: Add 50 μL 0.1% formic acid in UP H2O to wells of a new 96-well plate • Step 6: Transfer 50 μL extracted sample to relevant position in second 96-well plate • Step 7: Mix at 1200 rpm for 2 min • Step 8: Heat seal and analyse on the LC-MS/MS system • Instrument: Xevo TQ-D with CTC Autosampler
(§3) Samples were sent for method optimization and measurement of prodrug via unique calibration lines and following acceptance QC's. Dose formulation concentrations were also measured, and PK parameters were determined (Cmax (ng/mL), Tmax (hr), Cl (ml/min/kg), Vdss (L/kg), t½ (hr), AUC0-t (ng/mL*hr), AUC0-inf (ng/mL*hr), MRT (hr), Bioavailability (% F) where warranted) using WinNon Lin software. Data (including bioanalytical results and assay performance) were reported in a tabulated format and QC'd.
Formulation for IM administration: All compounds were formulated as solutions or fine suspensions in saline at 12.5 mg API/mL. This provided doses of 5 mg/kg (equivalent of xanomeline) when given to a 250 g rat in a 100 μL dosing volume.
The pharmacokinetic properties of the synthesized xanomeline prodrugs after intramuscular administration in a rat model were assessed. The concentration of prodrug was measured in each rat at various sampling timepoints after intramuscular administration of the synthesized xanomeline prodrugs to rats.
Dose formulations were made at equivalent concentrations of active compound (xanomeline) adjusted for molecular weight of the compounds. The synthesized xanomeline prodrugs were dosed at 5 mg/kg intramuscular (IM) nominal dose. Nominal doses were used in PK parameter determinations.

[2] = Rat PK: plasma prodrug concentration after intravenous (IV) dosing of xanomeline prodrugs at 1 mg/kg (Example A-6); assay type: in vivo, male Sprague-Dawley (SD) rats; conditions: male, Sprague-Dawley, IV 1 mg/kg of xanomeline; for concentration at 0.5 h: 0.500 h; for concentration at 0.75 h: 0.750 h
Method: as §1, §2, §3
Compound was dissolved in DMSO:HPCD (20% w/v in water) [10:90] 0.5 mg API/mL to provide doses of 1 mg/kg when administered IV in a 2 mL/kg dosing volume.
The pharmacokinetic properties of the synthesized xanomeline prodrugs after intravenous administration in a rat model were assessed. The concentration of prodrug was measured in each rat at various sampling timepoints after intravenous administration of the synthesized xanomeline prodrugs to rats.
Dose formulations were made at equivalent concentrations of active compound (xanomeline) adjusted for molecular weight of the compounds. The synthesized xanomeline prodrugs were dosed at 1 mg/kg intravenous (IV) nominal dose. Nominal doses were used in PK parameter determinations.

[3] = iv, 1 mg/kg, Mean, read-out: Prodrug Plasma Concentrations Following Intravenous Dosing
[4] = iv, 1 mg/kg, individual animals, read-out: Prodrug Plasma Concentrations Following Intravenous Dosing

- Tmax ([1]; analyte prodrug): 30 min
- concentration at 2 h ([1]; intramuscular, 5 mg/kg, 2.00 h, read-out: Prodrug Plasma Concentrations Following Intramuscular Dosing): 71.3 ng/mL
- concentration at 4 h ([1]; intramuscular, 5 mg/kg, 4.00 h, read-out: Prodrug Plasma Concentrations Following Intramuscular Dosing): 33.4 ng/mL
- concentration at 8 h ([1]; intramuscular, 5 mg/kg, 8.00 h, read-out: Prodrug Plasma Concentrations Following Intramuscular Dosing): 18.6 ng/mL
- Tmax ([2]; analyte prodrug, individual animals): 15 min
- concentration at 0.25 h ([2]; iv, 1 mg/kg, 0.250 h, Mean, read-out: Prodrug Plasma Concentrations Following Intravenous Dosing): 33.2 ng/mL
- concentration at 0.5 h [2, 3]: 12.9 ng/mL
- concentration at 0.5 h [2, 4]: 10.3 ng/mL
- concentration at 0.75 h [2, 3]: 6.01 ng/mL
- concentration at 0.75 h [2, 4]: 6.01 ng/mL
- concentration at 1 h [2, 3]: 5.37 ng/mL
- concentration at 1 h [2, 4]: 5.58 ng/mL
- Cmax ([2]; iv, 1 mg/kg, analyte prodrug, Mean): 33.2 ng/mL
- AUC(0-inf) ([2]; iv, 1 mg/kg, analyte prodrug, Mean, read-out: Prodrug AUCINF_obs): 44.4 ng·h/mL
- AUC(0-t) ([2]; iv, 1 mg/kg, analyte prodrug, Mean, read-out: Prodrug AUClast): 42.4 ng·h/mL
Compound: CCCCCCOc1nsnc1C1=CCC[N+](C)(C(CC)OC(=O)C(C)(C)C)C1 (stereo not drawn) [Compound 352]
